Experimental findings from patent US11066414B2, “Cot modulators and methods of use thereof” (Gilead Sciences, Inc., priority 2015, dated 2021) are described below.

Where two headings read alike, the source gives them in different places.

One experiment relates to TNFα. The experiment in a line: Cot Monocyte TNFα Cell Based Assay.
A further experiment deals with Human Cot (Homo sapiens (Human), UniProt P41279). The experiment in a line: High Throughput Cot Biochemical Assay. To be noted: Cot HTRF (TR-FRET KinEASE) biochemical assay, 400 μM ATP.
The mark [1] stands for this setting: Homo sapiens, Monocyte, read-out: EC50 TNF, LPS-stimulated human monocytes, TNFα TR-FRET.
The mark [2] stands for this setting: read-out: EC50 TNF, LPS-stimulated human monocytes, TNFα TR-FRET.

Human Cot, sequence (P41279 30-397): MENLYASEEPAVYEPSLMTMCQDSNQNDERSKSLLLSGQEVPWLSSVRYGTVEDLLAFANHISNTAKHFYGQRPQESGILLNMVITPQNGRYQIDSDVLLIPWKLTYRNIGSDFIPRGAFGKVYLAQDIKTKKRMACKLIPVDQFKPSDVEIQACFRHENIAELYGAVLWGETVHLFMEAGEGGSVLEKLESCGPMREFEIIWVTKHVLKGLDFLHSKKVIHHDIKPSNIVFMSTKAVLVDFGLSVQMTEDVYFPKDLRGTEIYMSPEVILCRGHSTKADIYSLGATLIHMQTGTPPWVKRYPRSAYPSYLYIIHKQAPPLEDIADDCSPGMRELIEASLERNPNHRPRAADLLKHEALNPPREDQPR
Protocol for Human Cot: Human Cot enzyme activity was measured using KinEASE (Cisbio), a time-resolved fluorescence resonance energy transfer (TR-FRET) immunoassay. In this assay, Cot-catalyzes the phosporylation of a XL665-labeled peptide substrate. Europium conjugated phospho-tyrosine specific antibody binds the resulting phosphorylated peptide. Formation of phosphorylated peptide is quantified by TR-FRET with Europium as the donor and XL665 the acceptor in a 2-step endpoint assay. […] In brief, test compounds serially diluted in DMSO were delivered into Proxy white, low volume, 384 well plates using the Echo 550 acoustic liquid dispenser (Labcyte®). Cot enzyme and substrates were dispensed into assay plates using a Multi-Flo (Bio-Tek Instruments). The standard 5 μL reaction mixture contained 400 μM ATP, 1 μM STK3 peptide, 5 nM of Cot in reaction buffer (10 mM MOPS, pH 7.0, 0.02% NaN3, 0.5 mg/mL BSA, 10 mM MgOAc, 1 mM DTT, 0.025% NP-40, 1.5% glycerol) and 0.1% DMSO.

For `Cc1nc(F)ccc1[C@H](Nc1cc(C#N)c2ncc(C#N)c(NCC(C)(C)C)c2c1)c1nnn(C23CC(C2)C3)c1F` [Example 954, (S)-6-(((1-(bicyclo[1.1.1]pentan-1-yl)-5-fluoro-1H-1,2,3-triazol-4-yl)(6-fluoro-2-methylpyridin-3-yl)methyl)amino)-4-(neopentylamino)quinoline-3,8-dicarbonitrile], the EC50 (in general, the concentration needed to bring the measured effect to its halfway point) in the experiment with TNFα (setting [1]) came out at 16 nM. Besides, the IC50 – broadly, the concentration at which inhibition is half-maximal – against Human Cot (IC50 HTRF) came out at 7 nM.

For the molecule `Cc1nc(F)ccc1[C@H](Nc1cc(Cl)c2ncc(C#N)c(NCC(C)(C)C(F)(F)F)c2c1)c1nnn([C@@H](C)CF)c1F` [Example 955, 8-chloro-6-(((S)-(5-fluoro-1-((S)-1-fluoropropan-2-yl)-1H-1,2,3-triazol-4-yl)(6-fluoro-2-methylpyridin-3-yl)methyl)amino)-4-((3,3,3-trifluoro-2,2-dimethylpropyl)amino)quinoline-3-carbonitrile], in the experiment on TNFα (setting [1]), the EC50 is 50 nM. This molecule had a half-inhibitory concentration (IC50) against Human Cot (IC50 HTRF) of 6 nM.

For the molecule `Cc1nc(F)ccc1[C@H](Nc1cc(Cl)c2ncc(C#N)c(NCC(C)(C)C(F)(F)F)c2c1)c1nnn(C23CC(C2)C3)c1F` [Example 956, (S)-6-(((1-(bicyclo[1.1.1]pentan-1-yl)-5-fluoro-1H-1,2,3-triazol-4-yl)(6-fluoro-2-methylpyridin-3-yl)methyl)amino)-8-chloro-4-((3,3,3-trifluoro-2,2-dimethylpropyl)amino)quinoline-3-carbonitrile], in the experiment with TNFα (setting [1]), the EC50 was determined as 44 nM. At Human Cot (IC50 HTRF), this molecule registered a half-inhibitory concentration (IC50) of 7 nM.

Consider `Cc1nc(F)ccc1[C@H](Nc1cc(Cl)c2ncc(C#N)c(NCC(C)(C)C(F)(F)F)c2c1)c1nnn(C2(C3CC3)CC2)c1F` [Example 957], for which the concentration giving a half-maximal response (EC50) in the experiment on TNFα (setting [2]) was determined as 54 nM. Further, the IC50 at Human Cot (read-out: IC50 HTRF) amounted to 5 nM.

On to `Cc1nc(F)ccc1[C@H](Nc1cc(Cl)c2ncc(C#N)c(NCC(C)(C)C(F)(F)F)c2c1)c1nnn(C2(C)CC2)c1F` [Example 959, (S)-8-chloro-6-(((5-fluoro-1-(1-methylcyclopropyl)-1H-1,2,3-triazol-4-yl)(6-fluoro-2-methylpyridin-3-yl)methyl)amino)-4-((3,3,3-trifluoro-2,2-dimethylpropyl)amino)quinoline-3-carbonitrile], for which the EC50 with TNFα (setting [1]) was 41 nM. Further, at Human Cot (IC50 HTRF), it took 3 nM to reach half-maximal inhibition (IC50).

In the case of `Cc1nc(F)ccc1[C@H](Nc1cc(Cl)c2ncc(C#N)c(NCC(C)(C)C)c2c1)c1nnn(C2(C(F)F)CC2)c1F` [Example 960, (S)-8-chloro-6-(((1-(1-(difluoromethyl)cyclopropyl)-5-fluoro-1H-1,2,3-triazol-4-yl)(6-fluoro-2-methylpyridin-3-yl)methyl)amino)-4-(neopentylamino)quinoline-3-carbonitrile], in the experiment with TNFα (setting [1]), the EC50 is 55 nM. The molecule further gave an IC50 against Human Cot (IC50 HTRF) of 7 nM.

Regarding `Cc1nc(F)ccc1[C@H](Nc1cc(Cl)c2ncc(C#N)c(NCC(C)(C)C)c2c1)c1nnn(C)c1F` [Example 963, (S)-8-chloro-6-(((5-fluoro-1-methyl-1H-1,2,3-triazol-4-yl)(6-fluoro-2-methylpyridin-3-yl)methyl)amino)-4-(neopentylamino)quinoline-3-carbonitrile], the 50% effective concentration (EC50) in the experiment on TNFα (setting [1]) is 51 nM. Further, at Human Cot (IC50 HTRF), inhibition was half-maximal at 4 nM (IC50).

Turning to `COc1c([C@@H](Nc2cc(C#N)c3ncc(C#N)c(NCC(C)(C)C)c3c2)c2ccc(F)nc2C)nnn1C1(C(F)F)CC1` [Example 964, (S)-6-(((1-(1-(difluoromethyl)cyclopropyl)-5-methoxy-1H-1,2,3-triazol-4-yl)(6-fluoro-2-methylpyridin-3-yl)methyl)amino)-4-(neopentylamino)quinoline-3,8-dicarbonitrile], in the experiment with TNFα (setting [1]), the EC50 turned out to be 105 nM. This molecule came in with an IC50 against Human Cot (IC50 HTRF) of 3 nM.

For the molecule `COc1c([C@@H](Nc2cc(Cl)c3ncc(C#N)c(NCC(C)(C)C)c3c2)c2ccc(F)nc2C)nnn1C1(C(F)F)CC1` [Example 965, (S)-8-chloro-6-(((1-(1-(difluoromethyl)cyclopropyl)-5-methoxy-1H-1,2,3-triazol-4-yl)(6-fluoro-2-methylpyridin-3-yl)methyl)amino)-4-(neopentylamino)quinoline-3-carbonitrile], the EC50 with TNFα (setting [1]) worked out at 78 nM. Further, the IC50 at Human Cot (IC50 HTRF) is 4 nM.

On to `COc1c([C@@H](Nc2cc(Cl)c3ncc(C#N)c(NCC(C)(C)C)c3c2)c2ccc(F)nc2C)nnn1C1CC1` [Example 967, (S)-8-chloro-6-(((1-cyclopropyl-5-methoxy-1H-1,2,3-triazol-4-yl)(6-fluoro-2-methylpyridin-3-yl)methyl)amino)-4-(neopentylamino)quinoline-3-carbonitrile], for which, in the experiment on TNFα (setting [1]), the EC50 turned out to be 94 nM. Also, on Human Cot (IC50 HTRF), half-maximal inhibition (IC50) was put at 2 nM.

For the molecule `COc1c([C@@H](Nc2cc(Cl)c3ncc(C#N)c(NCC(C)(C)C)c3c2)c2ccc(F)nc2C)nnn1C12CC(C1)C2` [Example 968, (S)-6-(((1-(bicyclo[1.1.1]pentan-1-yl)-5-methoxy-1H-1,2,3-triazol-4-yl)(6-fluoro-2-methylpyridin-3-yl)methyl)amino)-8-chloro-4-(neopentylamino)quinoline-3-carbonitrile], the EC50 with TNFα (setting [1]) was found to be 94 nM. Also, at Human Cot (IC50 HTRF), the IC50 was 2 nM.

For `COc1c([C@@H](Nc2cc(Cl)c3ncc(C#N)c(NCC(C)(C)C)c3c2)c2ccc(F)nc2C)nnn1C` [Example 969, (S)-8-chloro-6-(((6-fluoro-2-methylpyridin-3-yl)(5-methoxy-1-methyl-1H-1,2,3-triazol-4-yl)methyl)amino)-4-(neopentylamino)quinoline-3-carbonitrile], the EC50 in the experiment with TNFα (setting [1]) is 258 nM. For the same molecule, the IC50 on Human Cot (IC50 HTRF) amounted to 8 nM.

Regarding `COc1c(C(Nc2cc(Cl)c3ncc(C#N)c(NCC(C)(C)C)c3c2)c2ccc(F)nc2C)nnn1C` (centres unmarked) [Example 971, 8-chloro-6-(((6-fluoro-2-methylpyridin-3-yl)(5-methoxy-1-methyl-1H-1,2,3-triazol-4-yl)methyl)amino)-4-(neopentylamino)quinoline-3-carbonitrile], the EC50 in the experiment with TNFα (setting [1]) amounted to 301 nM. On Human Cot (IC50 HTRF), this molecule registered a half-inhibitory concentration (IC50) of 11 nM.

As to `CC(C)(C)CNc1c(C#N)cnc2c(Cl)cc(N[C@H](c3cn(C4(C(F)(F)F)CC4)nn3)c3cccc4[nH]c(C(F)(F)F)nc34)cc12` [Example 972, (S)-8-chloro-4-(neopentylamino)-6-(((2-(trifluoromethyl)-1H-benzo[d]imidazol-4-yl)(1-(1-(trifluoromethyl)cyclopropyl)-1H-1,2,3-triazol-4-yl)methyl)amino)quinoline-3-carbonitrile], the half-maximal effective concentration (EC50) in the experiment with TNFα (setting [1]) worked out at 1000 nM. On Human Cot (IC50 HTRF), this molecule registered an IC50 of 1820 nM.

In the case of `[2H]c1c([C@@H](Nc2cc(Cl)c3ncc(C#N)c(NC([2H])([2H])C(C)(C)C)c3c2)c2ccc(F)nc2C)nnn1C1(C(F)F)CC1` [Example 973, (S)-8-chloro-6-(((1-(1-(difluoromethyl)cyclopropyl)-1H-1,2,3-triazol-4-yl-5-d)(6-fluoro-2-methylpyridin-3-yl)methyl)amino)-4-((2,2-dimethylpropyl-1,1-d2)amino)quinoline-3-carbonitrile], the EC50 in the experiment with TNFα (setting [1]) is 34 nM. Also, half-maximal inhibition against Human Cot (IC50 HTRF) (IC50) was put at 3 nM.

As to `Cc1nc(F)ccc1[C@H](Nc1cc(Cl)c2ncc(C#N)c(NCC(C)(C)C)c2c1)c1nnn(C2(C(F)F)CC2)c1C#N` [Example 974, (S)-8-chloro-6-(((5-cyano-1-(1-(difluoromethyl)cyclopropyl)-1H-1,2,3-triazol-4-yl)(6-fluoro-2-methylpyridin-3-yl)methyl)amino)-4-(neopentylamino)quinoline-3-carbonitrile], the EC50 in the experiment with TNFα (setting [1]) was found to be 60 nM. The molecule further yielded an IC50 against Human Cot (IC50 HTRF) of 11 nM.

In the case of `Cc1nc(F)ccc1[C@H](Nc1cc(Cl)c2ncc(C#N)c(NCC(C)(C)C)c2c1Br)c1nnn(C2(C(F)F)CC2)c1F` [Example 975, (S)-5-bromo-8-chloro-6-(((1-(1-(difluoromethyl)cyclopropyl)-5-fluoro-1H-1,2,3-triazol-4-yl)(6-fluoro-2-methylpyridin-3-yl)methyl)amino)-4-(neopentylamino)quinoline-3-carbonitrile], in the experiment with TNFα (setting [1]), the EC50 was 1000 nM. The molecule also came in with an IC50 against Human Cot (IC50 HTRF) of 1230 nM.

In the case of `Cc1nc(F)ccc1[C@H](Nc1cc(-c2cncnc2)c2ncc(C#N)c(NCC(C)(C)C)c2c1)c1cn(C2(C(F)F)CC2)nn1` [Example 976], the EC50 in the experiment on TNFα (setting [2]) came to 276 nM. Further, on Human Cot (read-out: IC50 HTRF), the half-inhibitory concentration (IC50) is 21 nM.

On to `COc1ccc(C(Nc2cc(Cl)c3ncc(C#N)c(NCC(C)(C)C)c3c2)c2cn(C3(C(F)(F)F)CC3)nn2)c(C)n1` (centres unmarked) [Example 978, 8-chloro-6-(((6-methoxy-2-methylpyridin-3-yl)(1-(1-(trifluoromethyl)cyclopropyl)-1H-1,2,3-triazol-4-yl)methyl)amino)-4-(neopentylamino)quinoline-3-carbonitrile], for which the EC50 with TNFα (setting [1]) amounted to 303 nM. At Human Cot (IC50 HTRF), this molecule displayed an IC50 of 9 nM.

For `Cc1nc(F)ccc1[C@@H](c1cn(C2(C(F)(F)F)CC2)nn1)N(C)c1cc(Cl)c2ncc(C#N)c(NCC(C)(C)C)c2c1` [Example 979, (S)-8-chloro-6-(((6-fluoro-2-methylpyridin-3-yl)(1-(1-(trifluoromethyl)cyclopropyl)-1H-1,2,3-triazol-4-yl)methyl)(methyl)amino)-4-(neopentylamino)quinoline-3-carbonitrile], the EC50 in the experiment with TNFα (setting [1]) was 1000 nM. Also, on Human Cot (IC50 HTRF), the midpoint of inhibition, the IC50, lay at 244 nM.

Regarding `CC(=O)c1cc(N[C@H](c2cn(C3(C(F)F)CC3)nn2)c2ccc(F)nc2C)cc2c(NCC(C)(C)C)c(C#N)cnc12` [Example 981, (S)-8-acetyl-6-(((1-(1-(difluoromethyl)cyclopropyl)-1H-1,2,3-triazol-4-yl)(6-fluoro-2-methylpyridin-3-yl)methyl)amino)-4-(neopentylamino)quinoline-3-carbonitrile], in the experiment on TNFα (setting [1]), the EC50 came to 20 nM. At Human Cot (IC50 HTRF), this molecule displayed an IC50 of 4 nM.

With `Cc1nc(F)ccc1[C@H](Nc1cc(Cl)c2ncc(C#N)c(NCC(C)(C)C)c2c1F)c1cn(C2(C(F)F)CC2)nn1` [Example 983, (S)-8-chloro-6-(((1-(1-(difluoromethyl)cyclopropyl)-1H-1,2,3-triazol-4-yl)(6-fluoro-2-methylpyridin-3-yl)methyl)amino)-5-fluoro-4-(neopentylamino)quinoline-3-carbonitrile], the EC50 with TNFα (setting [1]) was 1000 nM. Besides, the IC50 against Human Cot (IC50 HTRF) was determined as 9640 nM.
